{"source": "patent US20030073618A1", "about": "“Compounds comprising disulfide-containing peptides and nitrogenous bases, and medical uses thereof” (priority 2001, published 2003)", "key": {"hepatitis B virus (HBV) [1]": {"system": "hepatitis B virus (HBV)", "experiment": "Efficacy study in chronic viral hepatitis B, 62 patients (Tables 47-49)", "type": "in vivo, human", "conditions": "month 1 (after treatment)", "from_the_text": "(§1) State of patient upon completion of treatment."}, "hepatitis B virus (HBV) [2]": {"system": "hepatitis B virus (HBV)", "experiment": "Efficacy study in chronic viral hepatitis B, 62 patients (Tables 47-49)", "type": "in vivo, human"}, "hepatitis B virus (HBV) [3]": {"system": "hepatitis B virus (HBV)", "experiment": "Efficacy study in acute viral hepatitis B with severe course, 35 patients (Tables 50-53)", "type": "in vivo, human", "from_the_text": "as §1"}, "hepatitis C virus (HCV)": {"system": "hepatitis C virus (HCV)", "experiment": "Efficacy study in chronic viral hepatitis C, 74 patients (Tables 54-55)"}, "[4]": {"conditions": "month 2 (1 month after treatment)"}, "[5]": {"conditions": "month 4 (3 months after treatment)"}}, "note": "Marks after values point to notes of the source that are not given here."}
{"smiles": "CC(C)(C)NC(=O)[C@@H]1C[C@@H]2CCCC[C@@H]2CN1C[C@@H](O)[C@H](Cc1ccccc1)NC(=O)[C@H](CC(N)=O)NC(=O)c1ccc2ccccc2n1", "note": "[Invirasa]", "values": [{"measurement": "ALT in Chronic HBV Infection", "setting": "hepatitis B virus (HBV) [1]", "value": "**90.8 ± 5.5 U/L"}, {"measurement": "HbsAg in Chronic HBV Infection", "setting": "hepatitis B virus (HBV) [1]", "value": "**109.0 ± 54.5 ng/mL"}, {"measurement": "PCR (%) in Chronic HBV Infection", "setting": "hepatitis B virus (HBV) [1]", "value": "**70.0* %"}, {"measurement": "ALT in Chronic HBV Infection", "setting": "hepatitis B virus (HBV) [2]; Baseline (before treatment)", "value": "165.7 ± 17.0", "unit": "U/L"}, {"measurement": "HbsAg in Chronic HBV Infection", "setting": "hepatitis B virus (HBV) [2]; Baseline (before treatment)", "value": "137.0 ± 20.6", "unit": "ng/mL"}, {"measurement": "PCR (%) in Chronic HBV Infection", "setting": "hepatitis B virus (HBV) [2]; Baseline (before treatment)", "value": 100, "unit": "%"}, {"measurement": "ALT in Chronic HBV Infection", "setting": "hepatitis B virus (HBV) [2]; [4]", "value": "**71.4 ± 6.5 U/L"}, {"measurement": "HbsAg in Chronic HBV Infection", "setting": "hepatitis B virus (HBV) [2]; [4]", "value": "**112.2 ± 22.2 ng/mL"}, {"measurement": "PCR (%) in Chronic HBV Infection", "setting": "hepatitis B virus (HBV) [2]; [4]", "value": "**60.0* %"}, {"measurement": "ALT in Chronic HBV Infection", "setting": "hepatitis B virus (HBV) [2]; [5]", "value": "**71.8 ± 7.4 U/L"}, {"measurement": "HbsAg in Chronic HBV Infection", "setting": "hepatitis B virus (HBV) [2]; [5]", "value": "**172.0 ± 14.5 ng/mL"}, {"measurement": "PCR (%) in Chronic HBV Infection", "setting": "hepatitis B virus (HBV) [2]; [5]", "value": "**60.0%"}]}
{"smiles": "C[C@]12C=CC(=O)C=C1CC[C@@H]1[C@@H]2[C@@H](O)C[C@@]2(C)[C@H]1CC[C@]2(O)C(=O)CO", "note": "[Prednisolone]", "values": [{"measurement": "ALT in Severe HBV Infection", "setting": "hepatitis B virus (HBV) [3]; Baseline (before treatment)", "value": "1657.9 ± 96.5", "unit": "U/L"}, {"measurement": "Bilirubin in Severe HBV Infection", "setting": "hepatitis B virus (HBV) [3]; Baseline (before treatment)", "value": "313.9 ± 62.6", "unit": "µmol/L"}, {"measurement": "HbsAg in Severe HBV Infection", "setting": "hepatitis B virus (HBV) [3]; Baseline (before treatment)", "value": "189.7 ± 20.4", "unit": "ng/mL"}, {"measurement": "PCR (%) in Severe HBV Infection", "setting": "hepatitis B virus (HBV) [3]; Baseline (before treatment)", "value": 100, "unit": "%"}, {"measurement": "ALT in Severe HBV Infection", "setting": "hepatitis B virus (HBV) [3]; month 1 (after treatment)", "value": "**293.8 ± 18.8 U/L"}, {"measurement": "Bilirubin in Severe HBV Infection", "setting": "hepatitis B virus (HBV) [3]; month 1 (after treatment)", "value": "**86.9 ± 21.9 μmole/L"}, {"measurement": "HbsAg in Severe HBV Infection", "setting": "hepatitis B virus (HBV) [3]; month 1 (after treatment)", "value": "**97.8 ± 18.6 ng/mL"}, {"measurement": "PCR (%) in Severe HBV Infection", "setting": "hepatitis B virus (HBV) [3]; month 1 (after treatment)", "value": "**66.7%"}, {"measurement": "ALT in Severe HBV Infection", "setting": "hepatitis B virus (HBV) [3]; [4]", "value": "**145.4 ± 15.5 U/L"}, {"measurement": "Bilirubin in Severe HBV Infection", "setting": "hepatitis B virus (HBV) [3]; [4]", "value": "**31.4 ± 14.6 μmole/L"}, {"measurement": "HbsAg in Severe HBV Infection", "setting": "hepatitis B virus (HBV) [3]; [4]", "value": "**87.7 ± 12.7 ng/mL"}, {"measurement": "PCR (%) in Severe HBV Infection", "setting": "hepatitis B virus (HBV) [3]; [4]", "value": "**66.7%"}, {"measurement": "ALT in Severe HBV Infection", "setting": "hepatitis B virus (HBV) [3]; [5]", "value": "**65.3 ± 15.7 U/L"}, {"measurement": "Bilirubin in Severe HBV Infection", "setting": "hepatitis B virus (HBV) [3]; [5]", "value": "**26.84 ± 13.99 μmole/L"}, {"measurement": "HbsAg in Severe HBV Infection", "setting": "hepatitis B virus (HBV) [3]; [5]", "value": "**76.6 ± 15.4 ng/mL"}, {"measurement": "PCR (%) in Severe HBV Infection", "setting": "hepatitis B virus (HBV) [3]; [5]", "value": "**53.3%"}]}
{"smiles": "Cc1cn([C@H]2C[C@H](N=[N+]=[N-])[C@@H](CO)O2)c(=O)[nH]c1=O", "note": "[Retrovir]", "values": [{"measurement": "ALT in Chronic HCV Infection", "setting": "hepatitis C virus (HCV); Baseline (before treatment)", "value": "180 ± 20.0", "unit": "U/L"}, {"measurement": "ALT in Chronic HCV Infection", "setting": "hepatitis C virus (HCV); month 1 (after treatment)", "value": "**132.0 ± 51.5 U/L"}, {"measurement": "ALT in Chronic HCV Infection", "setting": "hepatitis C virus (HCV); [4]", "value": "**108 ± 40.3 U/L"}, {"measurement": "ALT in Chronic HCV Infection", "setting": "hepatitis C virus (HCV); [5]", "value": "**90.0 ± 25.2 U/L"}]}
{"smiles": "Nc1ccn([C@H]2CC[C@@H](CO)O2)c(=O)n1", "note": "[Zalzitabin]", "values": [{"measurement": "PCR (%) in Chronic HCV Infection", "setting": "hepatitis C virus (HCV); Baseline (before treatment)", "value": 100, "unit": "%"}, {"measurement": "PCR (%) in Chronic HCV Infection", "setting": "hepatitis C virus (HCV); month 1 (after treatment)", "value": "**73.9* %"}, {"measurement": "PCR (%) in Chronic HCV Infection", "setting": "hepatitis C virus (HCV); [4]", "value": "**56.5* %"}, {"measurement": "PCR (%) in Chronic HCV Infection", "setting": "hepatitis C virus (HCV); [5]", "value": "**60.9* %"}]}
{"smiles": "Cc1cn([C@H]2C[C@H](N=[N+]=[N-])[C@@H](CO)O2)c(=O)[nH]c1=O", "note": "[Zidovudine]", "values": [{"measurement": "PCR (%) in Chronic HCV Infection", "setting": "hepatitis C virus (HCV); Baseline (before treatment)", "value": 100, "unit": "%"}, {"measurement": "PCR (%) in Chronic HCV Infection", "setting": "hepatitis C virus (HCV); month 1 (after treatment)", "value": "**54.5* %"}, {"measurement": "PCR (%) in Chronic HCV Infection", "setting": "hepatitis C virus (HCV); [4]", "value": "**63.6* %"}, {"measurement": "PCR (%) in Chronic HCV Infection", "setting": "hepatitis C virus (HCV); [5]", "value": "**59.1* %"}]}
